Each structure is given as a SMILES string. Values after ≈ are worked out from the molar mass of the structure shown. A value given as a limit tells only on which side of the number the result lay.

We go through 52 molecules from PubChem BioAssay AID1996.

The conditions of this data set: buffer; pH 7.4; 200.0 µM.
By kinetic solubility is commonly meant the concentration staying in solution when a stock, usually in DMSO, is diluted into the medium. `O=C1NC(=O)N(CCC2=CCCCC2)C(=O)/C1=C/c1cccs1` gave a solubility (kinetic) of 26.1 µg/mL (≈ 79 µM). For the molecule `COCCn1c(N)c(Sc2ccc(C)cc2)c(=O)[nH]c1=O`, the solubility (kinetic) is above 46.1 µg/mL. Take `O=C(O)CN1C(=O)C(=O)N(Cc2ccc(Cl)cc2Cl)C1=O`: the kinetic solubility is above 49.7 µg/mL.

For the molecule `CCOC(=O)C1CCN(Cc2cc(=O)oc3cc(C)ccc23)CC1`, the kinetic solubility amounted to 43.1 µg/mL (≈ 131 µM).

`COc1cccc(C(=O)OCC(=O)c2[nH]c(C)c(C(C)=O)c2C)c1` gave a solubility (kinetic) of 2.1 µg/mL (≈ 6.38 µM).

`O=C(CCl)Nc1ccc(S(=O)(=O)Nc2nccs2)cc1` registered a solubility (kinetic) of 34 µg/mL (≈ 102 µM). The result for `COC(=O)NC(=C(Cl)Cl)P(=O)(c1ccccc1)c1ccccc1` reads above 55.5 µg/mL; that for `C=CCN(CC=C)C(=O)C[n+]1ccc(C(N)=O)cc1.[Cl-]`, above 44.4 µg/mL. `Cc1ccc(S(=O)(=O)N2CCN(C(=O)Cn3c(=O)oc4ccccc43)CC2)cc1` gave a solubility (kinetic) of 12.7 µg/mL (≈ 30.6 µM). In the case of `Cc1ccc(OCc2ccc(C(=O)N3CCCC3)o2)cc1C`, the solubility (kinetic) is 31.8 µg/mL (≈ 106 µM). The result for `Cc1cc(C)c2nc(SCC(=O)Nc3cc(C)on3)c(C#N)cc2c1` reads below 0.2 µg/mL. The molecule `O=C(NC1CCCC1)C1CCCN1C(=O)Oc1ccccc1` (configuration not stated) came in with a kinetic solubility of 41.9 µg/mL (≈ 139 µM).

In turn, `O=C(CN1C(=O)NC2(CCCCCCC2)C1=O)Nc1c(Cl)cccc1Cl` yielded a kinetic solubility of 7.4 µg/mL (≈ 18.6 µM). `O=c1[nH]cnc2c1C(c1ccc(Cl)cc1)c1c(nc[nH]c1=O)O2` showed a kinetic solubility of 43.5 µg/mL (≈ 132 µM). Regarding `COc1ccc(NC(=O)CCC(=O)NCc2ccco2)c([N+](=O)[O-])c1`, the kinetic solubility was above 52.1 µg/mL. `CCOC(=O)c1[nH]cnc1C(=O)Nc1ccccc1C` registered a solubility (kinetic) of 10.3 µg/mL (≈ 37.7 µM).

Take `Cl.OCCN1CCN(c2nc3ccccc3nc2-c2ccccc2)CC1`: the kinetic solubility was above 55.6 µg/mL. Molecule `CCN(C(=O)COc1ccc(C(C)=O)cc1)c1cccc2ccccc12` returned a kinetic solubility of 43.2 µg/mL (≈ 124 µM). `O=P([O-])(CN1CCCCCC1)C1Cc2ccccc2C1` had a solubility (kinetic) of 43.7 µg/mL. Take `Cc1cc(NC(=O)CC(C)C)c(=O)n(Cc2cccc(F)c2)c1`: the kinetic solubility is 43.7 µg/mL (≈ 138 µM). In turn, `CC(=O)NC(C)Cc1cn(Cc2ccccc2)c2ccccc12` (configuration not stated) had a solubility (kinetic) above 46 µg/mL.

Molecule `Cc1ccc(C(=O)OCC(=O)NCc2ccc3c(c2)OCO3)o1` came in with a kinetic solubility above 47.6 µg/mL. With `CCS(=O)(=O)N1CCN(c2ccnc3cc(Cl)ccc23)CC1`, the kinetic solubility was above 51 µg/mL.

`O=C(CNC(=O)c1ccc(Cl)cc1)NC1CCCCC1` displayed a kinetic solubility of 6.6 µg/mL (≈ 22.4 µM). The result for `O=S(=O)(c1ccc2[nH]c3c(c2c1)CCCC3)N1CCCCC1` reads 12.3 µg/mL (≈ 38.6 µM); that for `Cc1nc(-c2ccc(C#N)cc2)cs1`, 13.5 µg/mL (≈ 67.4 µM). For the molecule `CC(=O)c1cccc(Nc2c([N+](=O)[O-])c(=O)oc3ccccc23)c1`, the kinetic solubility turned out to be 0.9 µg/mL (≈ 2.78 µM).

In turn, `COc1cc(S(=O)(=O)n2cnc3ccccc32)ccc1Br` returned a solubility (kinetic) above 55.1 µg/mL.

`O=C(Nc1ccc(Cl)cc1)c1ccc(-c2ccccn2)s1` registered a kinetic solubility below 0.3 µg/mL. Then `O=C(Cc1ccc(Cl)cc1)OCC(=O)c1ccc[nH]1`, with 27.3 µg/mL (≈ 98.3 µM); and `O=C(Cn1nc(C(F)F)cc1C1CC1)N1CCCC1`, with above 40.4 µg/mL; and `CSc1nsc(SCC(=O)Nc2ccc(OC(C)=O)cc2)n1`, with 2.8 µg/mL (≈ 7.88 µM). As to `S=C(NCc1ccccc1)N1CCn2cccc2C1c1ccncc1` (configuration not stated), the kinetic solubility turned out to be 45.2 µg/mL (≈ 130 µM). `Cc1nc2ccc(NC(=O)Cc3ccccc3F)cc2s1` displayed a kinetic solubility of 8 µg/mL (≈ 26.6 µM).

As to `O=C(c1cccc(F)c1)N1CCCc2ccccc21`, the solubility (kinetic) was 28.1 µg/mL (≈ 110 µM).

For `COc1ccccc1N(CC(=O)Nc1ccc(C)cc1Cl)S(=O)(=O)c1cccs1`, the kinetic solubility stood at 6.9 µg/mL (≈ 15.3 µM). Then `O=C(O)c1ccc(Nc2nc(-c3cccnc3)cs2)cc1O`, with above 47 µg/mL; and `CC1CCCC(NC(=S)NC(=O)c2ccco2)C1C` (configuration not stated), with 5.4 µg/mL (≈ 19.3 µM). As to `O=C(N1CCN(Cc2ccc3c(c2)OCO3)CC1)C(Cl)(Cl)Cl`, the kinetic solubility amounted to 37.6 µg/mL (≈ 103 µM). With `Cc1cc(C(=O)COc2ccccc2C(N)=O)c(C)n1C`, the kinetic solubility turned out to be 2.5 µg/mL (≈ 8.73 µM). Then `CCOC(=O)C1CCN(S(=O)(=O)c2ccc(Cl)s2)CC1`, with 12.3 µg/mL (≈ 36.4 µM); and `COc1ccc(NC(=O)N2CCc3ccccc3C2)cc1`, with 17.8 µg/mL (≈ 63 µM). The molecule `Cc1cccc(C(=O)OCCN2CCOCC2)c1.Cl` showed a solubility (kinetic) above 42.9 µg/mL.

With `CCOC(=O)c1c(C)nc2cc(C)cc(C)n12`, the solubility (kinetic) is 32.4 µg/mL (≈ 139 µM). `Cc1cccc(/C=N/NC(=O)c2ccncc2)n1` displayed a kinetic solubility above 36 µg/mL. The molecule `Cc1ccnc(Nc2nc(-c3ccc(O)c(O)c3)cs2)c1` displayed a solubility (kinetic) of 8.7 µg/mL (≈ 29.1 µM). On to `CC(=O)C1=C(O)C(=O)N(c2nccs2)C1c1ccccc1F` (configuration not stated), for which the solubility (kinetic) was above 47.7 µg/mL. `COc1cccc(N2C(=O)CN(Cc3ccccc3)C2=S)c1`: the solubility (kinetic) was 24.9 µg/mL (≈ 79.7 µM).

Molecule `Cc1ccc(NC(=O)CSc2ncc3ccccn23)cc1C` had a solubility (kinetic) of 40.5 µg/mL (≈ 130 µM). The result for `COc1cc(C(C)=O)ccc1Oc1cnccn1` reads above 36.6 µg/mL; that for `Cc1ccc(OCc2csc(N)n2)cc1`, above 33 µg/mL; that for `CC(=O)c1ccccc1OCCOc1ncnc2sccc12`, above 47.2 µg/mL.
